What all share (type): in vivo
In assay [1] the test system is Rice. Put plainly: Preemergence Herbicidal Activity, Rice. The conditions noted are these: Oryza sativa, pre-emergence; for plant injury at 500 g/ha: 0.5 kg/ha. From the text:
(§1) The herbicidal data in the following Tables 3 and 4 was obtained in the manner described in PCT published application no. […] In those tables, the test compounds are identified by numbers which correspond to those in Table 1, "kg/ha" is kilograms per hectare, and "% C" is percent control.

Assay [2] deals with Morningglory. Nature of the assay: Postemergence Herbicidal Activity, Morningglory. The note with it: Ipomoea, post-emergence; for pest or weed control at 500 g/ha: 0.5 kg/ha. From the text: (§2) The herbicidal data in the following Tables 3 and 4 was obtained in the manner described in PCT published application no. WO 85/01939, previously mentioned, usually employing solutions of the herbicidal compound in 50/50 acetone/water mixtures. In those tables, the test compounds are identified by numbers which correspond to those in Table 1, "kg/ha" is kilograms per hectare, and "% C" is percent control.

The test system of assay [3] is Cotton. Put plainly: Preemergence Herbicidal Activity, Cotton. The note with it: Gossypium hirsutum, pre-emergence; for plant injury at 500 g/ha: 0.5 kg/ha.
Description: as §2

Assay [4] relates to Field Bindweed. Nature of the assay: Preemergence Herbicidal Activity, Field Bindweed. The note with it: pre-emergence; for pest or weed control at 500 g/ha: 0.5 kg/ha.
Description: as §2

In assay [5] the test system is Green Foxtail. Nature of the assay: Postemergence Herbicidal Activity, Green Foxtail. The note with it: Setaria viridis, post-emergence; for pest or weed control at 500 g/ha: 0.5 kg/ha.
Description: as §1

Assay [6] has as its system Wheat. Put plainly: Postemergence Herbicidal Activity, Wheat. The note with it: Triticum aestivum, post-emergence; for plant injury at 500 g/ha: 0.5 kg/ha.
Description: as §1

Assay [7] has as its system Johnsongrass. Put plainly: Postemergence Herbicidal Activity, Johnsongrass. The conditions noted are these: Sorghum halepense, post-emergence; for pest or weed control at 500 g/ha: 0.5 kg/ha.
Description: as §1

The subject of assay [8] is Velvetleaf. Nature of the assay: Preemergence Herbicidal Activity, Velvetleaf. The note with it: Abutilon theophrasti, pre-emergence; for pest or weed control at 500 g/ha: 0.5 kg/ha.
Description: as §2

The test system of assay [9] is Velvetleaf. Put plainly: Postemergence Herbicidal Activity, Velvetleaf. The note with it: Abutilon theophrasti, post-emergence; for pest or weed control at 500 g/ha: 0.5 kg/ha.
Description: as §2

Assay [10] concerns Johnsongrass. Nature of the assay: Preemergence Herbicidal Activity, Johnsongrass. The note with it: Sorghum halepense, pre-emergence; for pest or weed control at 500 g/ha: 0.5 kg/ha.
Description: as §1

Assay [11] deals with Field Corn. Nature of the assay: Postemergence Herbicidal Activity, Field Corn. The note with it: Zea mays, post-emergence; for plant injury at 500 g/ha: 0.5 kg/ha.
Description: as §1

Assay [12] deals with Morningglory. Put plainly: Preemergence Herbicidal Activity, Morningglory. The conditions noted are these: Ipomoea, pre-emergence; for pest or weed control at 500 g/ha: 0.5 kg/ha.
Description: as §2

The subject of assay [13] is Cotton. Put plainly: Postemergence Herbicidal Activity, Cotton. The note with it: Gossypium hirsutum, post-emergence; for plant injury at 500 g/ha: 0.5 kg/ha.
Description: as §2

The subject of assay [14] is Green Foxtail. Put plainly: Preemergence Herbicidal Activity, Green Foxtail. The conditions noted are these: Setaria viridis, pre-emergence; for pest or weed control at 500 g/ha: 0.5 kg/ha.
Description: as §1

Assay [15] relates to Field Corn. Nature of the assay: Preemergence Herbicidal Activity, Field Corn. The note with it: Zea mays, pre-emergence; for plant injury at 500 g/ha: 0.5 kg/ha.
Description: as §1

The test system of assay [16] is Barnyardgrass. Nature of the assay: Postemergence Herbicidal Activity, Barnyardgrass. The note with it: Echinochloa crus-galli, post-emergence; for pest or weed control at 500 g/ha: 0.5 kg/ha.
Description: as §1

Assay [17] has as its system Soybean. Nature of the assay: Postemergence Herbicidal Activity, Soybean. The conditions noted are these: Glycine max, post-emergence; for plant injury at 500 g/ha: 0.5 kg/ha.
Description: as §1

For assay [18], the system named is Field Bindweed. Put plainly: Postemergence Herbicidal Activity, Field Bindweed. The note with it: post-emergence; for pest or weed control at 500 g/ha: 0.5 kg/ha.
Description: as §2

In assay [19] the test system is Rice. Put plainly: Postemergence Herbicidal Activity, Rice. The note with it: Oryza sativa, post-emergence; for plant injury at 500 g/ha: 0.5 kg/ha.
Description: as §1

Assay [20] has as its system Barnyardgrass. Nature of the assay: Preemergence Herbicidal Activity, Barnyardgrass. The conditions noted are these: Echinochloa crus-galli, pre-emergence; for pest or weed control at 500 g/ha: 0.5 kg/ha.
Description: as §1

Assay [21] has as its system Wheat. Put plainly: Preemergence Herbicidal Activity, Wheat. The conditions noted are these: Triticum aestivum, pre-emergence; for plant injury at 500 g/ha: 0.5 kg/ha.
Description: as §1

Assay [22] deals with Soybean. Nature of the assay: Preemergence Herbicidal Activity, Soybean. The note with it: Glycine max, pre-emergence; for plant injury at 500 g/ha: 0.5 kg/ha.
Description: as §1

Broadly, the plant injury is the degree to which the test organism was suppressed or injured, in per cent. Read a low plant injury as weak suppression. As a reminder, the pest or weed control is the degree to which the test organism was suppressed or injured, in per cent. The low end stands for a weak effect, the high end for a strong effect.

The structures appear in SMILES notation.

For the compound `CS(=O)(=O)N(c1cc(-n2nnn(CCCF)c2=O)c(F)cc1F)S(C)(=O)=O` [Compound 8, 1-[2,4-difluoro-5-[bis(N--methylsulfonyl)amino]phenyl]-1,4-dihydro-4-(3-fluoropropyl)-5H--tetrazol-5-one], the plant injury at 500 g/ha worked out at 70% in assay [1]; 95% in assay [3]; 30% in assay [6]; 50% in assay [11]; 95% in [13]; 40% in [15]. In addition, the plant injury at 500 g/ha in assay [17] worked out at 40%; in assay [19], 20%; in assay [21], 10%; in assay [22], 30%. Further, the pest or weed control at 500 g/ha in [2] was 40%; in assay [4] it was 40%; in assay [5], 50%; in assay [7], 30%; in assay [8] it was 100%; in assay [9], 95%. Besides, the pest or weed control at 500 g/ha was 50% in assay [10]; 60% in [12]; 50% in [14]; 40% in [16]; 30% in assay [18]; 40% in assay [20].

As for `CS(=O)(=O)N(c1cc(-n2nnn(CCCF)c2=O)c(F)cc1Br)S(C)(=O)=O` [Compound 10, 1-(4-bromo-2-fluoro-5-[bis(N--methylsulfonyl)amino]phenyl]-1,4-dihydro-4-(3-fluoropropyl)-5H--tetrazol-5-one], the plant injury at 1000 g/ha in [1] (1.0 kg/ha) is 95%; in [3] (1.0 kg/ha) it was 100%; in assay [6] (1.0 kg/ha), 60%; in assay [11] (1.0 kg/ha) it was 90%; in assay [13] (1.0 kg/ha) it was 100%; in assay [15] (1.0 kg/ha) it was 95%. The plant injury at 1000 g/ha in assay [17] (1.0 kg/ha) turned out to be 95%; in [19] (1.0 kg/ha), 30%; in assay [21] (1.0 kg/ha) it was 90%; in assay [22] (1.0 kg/ha), 80%. Besides, the pest or weed control at 1000 g/ha in assay [2] (1.0 kg/ha), in assay [4] (1.0 kg/ha), in [5] (1.0 kg/ha), in assay [7] (1.0 kg/ha), in assay [8] (1.0 kg/ha) and in [9] (1.0 kg/ha) was 100% in each case. In addition, the pest or weed control at 1000 g/ha in [10] (1.0 kg/ha) came out at 95%; in assay [12] (1.0 kg/ha), 100%; in assay [14] (1.0 kg/ha), 100%; in assay [16] (1.0 kg/ha), 100%; in [18] (1.0 kg/ha) it was 100%; in assay [20] (1.0 kg/ha), 100%.

Take `CCS(=O)(=O)N(C)c1cc(-n2nnn(CCCF)c2=O)c(F)cc1Cl` [Compound 12, 1-[4-chloro-2-fluoro-5-[(N--ethylsulfonyl-N--methyl)amino]phenyl]-1,4-dihydro-4-(3-fluoropropyl)-5H--tetrazol-5-one]: the plant injury at 500 g/ha is 90% in [1]; 100% in assay [3]; 80% in [6]; 70% in assay [11]; 100% in assay [13]; 100% in assay [15]. For the same compound, the plant injury at 500 g/ha in assay [17] was determined as 70%; in [19], 30%; in [21] it was 100%; in assay [22], 80%. For the same compound, the pest or weed control at 500 g/ha is 100% in assay [2]; 100% in assay [4]; 70% in assay [5]; 70% in [7]; 100% in assay [8]; 100% in assay [9]. For the same compound, the pest or weed control at 500 g/ha in [10] turned out to be 100%; in [12], 100%; in [14], 100%; in [16], 70%; in [18], 100%; in assay [20] it was 100%.

Source of the values: patent publication US4868321A, “Isothiocyanate intermediates” (FMC Corporation, priority 1988, dated 1989).
